The term IC50 denotes the concentration that inhibits the measured activity by half. Low values mean greater potency in that assay, high ones weaker potency in that assay.

Holding throughout (type): cell-based, human
Experiment [1] has as its system AGS cells (KRAS^G12D mutation). The experiment is described as follows: Cell proliferation inhibition assay (3D, CellTiter-Glo), AGS. As to conditions: 3D cell model, 5 days. An excerpt:
(§1) AsPC-1 was purchased from ATCC; Cat. NO.: CRL-1682; AGS was purchased from ATCC; Cat. NO.: CRL-1739; RPMI1640 was purchased from Gibco; Cat. NO.: 11875-093 2235123; F12K was purchased from Gibco; Cat. NO.: 21127-022; FBS was purchased from Gibco; Cat. NO.: 10099-141C; Trypsin (containing EDTA) was purchased from Gibco; Cat. NO.: 25200-072; CellTiter Glo-3D was purchased from Progema; Cat. NO.: G9683; 384-well sphere plates were purchased from coming; Cat. NO.: 3830; White background opaque 384-well plates were purchased from coming; Cat. NO.: 3570; Cell Counters were purchased from CHEMOMETEC; Model NO.: NC-200; microplate reader was purchased from PerkinElmer; Model NO.: Envison;
(§2) AsPC-1 is an endogenous human pancreatic cancer cell containing KRAS^G12D mutation, which is cultured in RPMI-1640 medium containing 10% FBS; AGS human gastric cancer cell line containing KRAS^G12D mutation, cultured in F-12K medium containing 10% FBS. Cells in the logarithmic growth phase were taken, digested with trypsin (containing EDTA), harvested and counted, and inoculated with 800 AsPC-1 cells/well or 400 AGS cells/well, respectively, in 384-well sphere plates and cultured overnight at 5% C02 to establish a 3D cell model. A 3.16-fold gradient concentration stock solution of 1000× compound was prepared using DMSO, diluted 100-fold into a 10× compound stock solution using media, and a 10× compound stock solution was added to each cell culture well the day after cell inoculating at a final concentration of 1× with a DMSO content of 0.1%. DMSO was used as an experimental control (control) and culture medium as a blank control (blank). After the addition of compounds, the cells were cultured for 5 days. […] CellTiter-Glo working solution was added to each well, mixed well, and incubated for 30 min. After standing for 30 min at room temperature, 40 μl of the mixed solution was transferred to a white background opaque 384-well plate. Luminescence chemiluminescence value was read on a microplate reader, and the cell proliferation inhibition ratio was calculated, IR (%)=(RLU control-RLU compound)/(RLU control-RLU blank)×100%. XLFit four-parameter method was used to fit the gradient dilution concentration of compounds and the corresponding cell proliferation inhibition ratio, and the IC50 value was calculated. […] Results for exemplary of the example compounds are shown in Table 3 below. - indicates not detected.

Experiment [2] concerns AsPC-1 cells (KRAS^G12D mutation). Nature of the experiment: Cell proliferation inhibition assay (3D, CellTiter-Glo), AsPC-1. Conditions: 3D cell model, 5 days.
Description: as §1, §2

In experiment [3] the test system is p-ERK in AGS cells (KRAS^G12D mutation). Nature of the experiment: Cell p-ERK detection assay. As to conditions: 3 h incubation, HTRF. The method, then:
AGS was purchased from ATCC; Cat. NO.: CRL-1739; F12K was purchased from Gibco; Cat. NO.: 21127-022; FBS was purchased from Gibco; Cat. NO.: 10099-141C; Trypsin (containing EDTA) was purchased from Gibco; Cat. NO.: 25200-072; DMSO was purchased from VWRAMRESCO; Cat. NO.: 0231-500ML; 96-well cell culture plate was purchased from Corning; Cat. NO.: 3599; An white background opaque 96-well plate was purchased from Cisbio; Cat. NO.: 66PL96025; Advance ERK phospho-T202/Y204 kit was purchased from Cisbio; Cat. NO.: 64AERPEH; Cell Counters were purchased from CHEMOMETEC; Model NO.: NC-200; microplate reader was purchased from PerkinElmer; Model NO.: Envison.
AGS is an endogenous human gastric adenocarcinoma cell line containing KRAS^G12D mutation, cultured in F12K+10% FBS medium. On the first day of the experiment, cells in the logarithmic growth phase were taken, digested with trypsin (containing EDTA), collected, and counted, and approximately 20,000 cells/well were inoculated in 96-well cell culture plates and cultured overnight in a 5% CO2 incubator. A 1000×3.16-fold gradient concentration stock of the compound was prepared using DMSO, diluted 200-fold into a 5× compound stock using the medium described above, and a 5× compound stock was added to each cell culture well the day after cell inoculating at a final concentration of 1× and a DMSO content of 0.1%. DMSO was used as an experimental control. After the compound was added and the incubation was continued for 3 h, the medium in the culture wells was removed, […] of cell lysis solution (from Advance ERK phospho-T202/Y204 kit, the same below) was added to each well, mixed well and incubated for 30 min, then […] of the mixed solution was transferred to a white background opaque 96-well plate, and another well was taken as a blank well with adding […] of cell lysis solution. After the transfer, […] of p-ERK HTRF antibody mixed solution (from Advance ERK phospho-T202/Y204 kit) was added to each well, after incubation for 4 h, HTRF fluorescence value (RLU) was read by a microplate reader, and p-ERK level inhibition ratio of the compound was calculated IR (%)=(RLU control-RLU compound)/(RLU control-RLU blank)×100%, compound concentration and corresponding cell p-ERK level inhibition ratio were fitted using Prism 8 four-parameter method, and IC50 value was calculated.
For orientation: TR-FRET usually uses a lanthanide donor and a delayed reading to cut background.

In the case of `C#Cc1cccc2cc(O)cc(-c3ncc4c(N5C[C@H]6CC[C@@H](C5)N6)nc(OCC56CCCN5CC(=C)C6)nc4c3F)c12` (stereo partly drawn) [Example Z8, 4-(4-((1R,5S)-3,8-diazabicyclo[3.2.1]octan-3-yl)-8-fluoro-2-((2-methylenetetrahydro-1H-pyrrolizin-7a(5H)-yl)methoxy)pyrido[4,3-d]pyrimidin-7-yl)-5-ethynylnaphthalen-2-ol], the IC50 was 5.3 nM in experiment [1] (Homo sapiens, AGS, 120 h); 57.7 nM in experiment [2] (Homo sapiens, ASPC1, 120 h); 2.78 nM in experiment [3] (Homo sapiens, AGS, 3 h).

As to `C#Cc1c(F)ccc2cc(O)cc(-c3ncc4c(N5C[C@H]6CC[C@@H](C5)N6)nc(OC[C@@]56CCCN5CC(=C)C6)nc4c3F)c12` [Example Z12, 4-(4-((1R,5S)-3,8-diazabicyclo[3.2.1]octan-3-yl)-8-fluoro-2-(((S)-2-methylenetetrahydro-1H-pyrrolizin-7a(5H)-yl)methoxy)pyrido[4,3-d]pyrimidin-7-yl)-5-ethynyl-6-fluoronaphthalen-2-ol], the IC50 in experiment [1] (Homo sapiens, AGS, 120 h) was found to be 2.8 nM; in experiment [2] (Homo sapiens, ASPC1, 120 h) it was 12.5 nM; in experiment [3] (Homo sapiens, AGS, 3 h), 1.83 nM.

Consider `C#Cc1cccc2cc(O)cc(-c3ncc4c(N5C[C@H]6CC[C@@H](C5)N6)nc(OCC56CC(=C)CN5CC(=C)C6)nc4c3F)c12` [Example Z21], for which the IC50 in experiment [1] was 6.5 nM; in experiment [2] it was 14.7 nM; in experiment [3], 0.6 nM.

With `C#Cc1cccc2cc(O)cc(-c3ncc4c(N5C[C@H]6CC[C@@H](C5)N6)nc(OCC56CC(=C)CN5[C@@H]5C[C@@H]5C6)nc4c3F)c12` (stereo partly drawn) [Example Z26, 4-(4-((1R,5S)-3,8-diazabicyclo[3.2.1]octan-3-yl)-8-fluoro-2-(((1aR,6aR)-4-methylenehexahydrocyclopropa[b]pyrrolizin-5a(3H)-yl)methoxy)pyrido[4,3-d]pyrimidin-7-yl)-5-ethynylnaphthalen-2-ol], inhibition in experiment [3] (Homo sapiens, AGS, 3 h) was half-maximal at 2.76 nM (IC50).

Turning to `C#Cc1cccc2cc(O)cc(-c3cc4nc(OCC56CCCN5CC(=C)C6)nc(N5CC6CCC(C5)N6)c4cn3)c12` (stereo not drawn) [Example Z191, 4-(4-(3,8-diazabicyclo[3.2.1]octan-3-yl)-2-((2-methylenetetrahydro-1H-pyrrolizin-7a(5H)-yl)methoxy)pyrido[4,3-d]pyrimidin-7-yl)-5-ethynylnaphthalen-2-ol], the IC50 in experiment [3] (Homo sapiens, AGS, 3 h) was 612 nM.

For `C#Cc1cccc2cc(O)cc(-c3ncc4c(N5CC6CCC(C6)C5)nc(OC[C@@]56CCCN5C[C@H](F)C6)nc4c3F)c12` [Example Z192, 4-(4-((1R,5S)-3-azabicyclo[3.2.1]octan-3-yl)-8-fluoro-2-(((2R,7aS)-2-fluorotetrahydro-1H-pyrrolin-7a(5H)-yl)methoxy)pyrido[4,3-d]pyrimidin-7-yl)-5-ethynylnaphthalen-2-ol], the midpoint of inhibition in experiment [3], the IC50, lay at 93.5 nM.

Consider `C#Cc1cccc2cccc(-c3c(Cl)cc4c(N5C[C@H]6CC[C@@H](C5)N6)nc(OCC56CCCN5CC(=C)C6)nc4c3F)c12` (stereo partly drawn) [Example Z193, 4-((1R,5S)-3,8-diazabicyclo[3.2.1]octan-3-yl)-6-chloro-7-(8-ethynylnaphthalen-1-yl)-8-fluoro-2-((2-methylenetetrahydro-1H-pyrrolizin-7a(5H)-yl)methoxy)quinazoline], for which the IC50 in experiment [3] (Homo sapiens, AGS, 3 h) worked out at 623 nM.

In turn, `C#Cc1c(Cl)ccc2cccc(-c3ncc4c(N5C[C@H]6CC[C@@H](C5)N6)nc(OCC56CC(=C)CN5CC(=C)C6)nc4c3F)c12` [Example Z195, 4-((1R,5S)-3,8-diazabicyclo[3.2.1]octan-3-yl)-7-(7-chloro-8-ethynylnaphthalen-1-yl)-2-((2,6-dimethylenetetrahydro-1H-pyrrolizin-7a(5H)-yl)methoxy)-8-fluoropyrido[4,3-d]pyrimidine] registered an IC50 in experiment [3] (Homo sapiens, AGS, 3 h) of 162 nM.

As to `C#Cc1cc(F)cc2cccc(-c3ncc4c(N5CC6CCC(C5)N6)nc(OCC56CC(=C)CN5CC(=C)C6)nc4c3F)c12` [Example Z198], in experiment [3], half-maximal inhibition (IC50) required 89.7 nM.

For the compound `C#Cc1cccc2nc(N)cc(-c3ncc4c(N5CC6CCC(C5)N6)nc(OCC56CC(=C)CN5CC(=C)C6)nc4c3F)c12` [Example Z201, 4-(4-(3,8-diazabicyclo[3.2.1]octan-3-yl)-2-((2,6-dimethylenetetrahydro-1H-pyrrolizin-7a(5H)-yl)methoxy)-8-fluoropyrido[4,3-d]pyrimidin-7-yl)-5-ethynylquinolin-2-amine], the IC50 in experiment [3] (Homo sapiens, AGS, 3 h) stood at 238 nM.

In the case of `C#Cc1cccc2c(F)c(O)cc(-c3ncc4c(N5CC6CCC(C5)N6)nc(OCC56CC(=C)CN5CC(=C)C6)nc4c3F)c12` [Example Z203, 4-(4-(3,8-diazabicyclo[3.2.1]octan-3-yl)-2-((2,6-dimethylenetetrahydro-1H-pyrrolizin-7a(5H)-yl)methoxy)-8-fluoropyrido[4,3-d]pyrimidin-7-yl)-5-ethynyl-1-fluoronaphthalen-2-ol], the midpoint of inhibition in experiment [3] (Homo sapiens, AGS, 3 h), the IC50, lay at 25.6 nM.

With `C#Cc1cccc2cc(O)cc(-c3ncc4c(N5C[C@H]6CC[C@@H](C5)[C@@H]6O)nc(OC[C@@]56CCCN5C[C@H](F)C6)nc4c3F)c12` [Example Z205-1, (1R,5S,8R)-3-(7-(8-ethynyl-3-hydroxynaphthalen-1-yl)-8-fluoro-2-(((2R,7aS)-2-fluorotetrahydro-1H-pyrrolizin-7a(5H)-yl)methoxy)pyrido[4,3-d]pyrimidin-4-yl)-3-azabicyclo[3.2.1]octan-8-ol], in experiment [3], the IC50 stood at 612 nM.

Take `C#Cc1cccc2cc(O)cc(-c3ncc4c(N5C[C@H]6CC[C@@H](C5)[C@H]6O)nc(OC[C@@]56CCCN5C[C@H](F)C6)nc4c3F)c12` [Example Z205-2, (1R, 5S, 8S)-3-(7-(8-ethynyl-3-hydroxynaphthalen-1-yl)-8-fluoro-2-(((2R,7aS)-2-fluorotetrahydro-1H-pyrrolizin-7a(5H)-yl)methoxy)pyrido[4,3-d]pyrimidin-4-yl)-3-azabicyclo[3.2.1]octan-8-ol]: the IC50 in experiment [3] amounted to 206 nM.

The compound `C#Cc1cccc2c(O)ccc(-c3ncc4c(N5C[C@H]6CC[C@@H](C5)N6)nc(OCC56CC(=C)CN5CC(=C)C6)nc4c3F)c12` [Example Z208, 4-(4-((1R,5S)-3,8-diazabicyclo[3.2.1]octan-3-yl)-2-((2,6-dimethylenetetrahydro-1H-pyrrolizin-7a(5H)-yl)methoxy)-8-fluoropyrido[4,3-d]pyrimidin-7-yl)-5-ethynylnaphthalen-1-ol] gave an IC50 in experiment [3] (Homo sapiens, AGS, 3 h) of 9.04 nM.

With `C#Cc1cccc2c(N)ccc(-c3ncc4c(N5CC6CCC(C5)N6)nc(OCC56CC(=C)CN5CC(=C)C6)nc4c3F)c12` [Example Z209], the IC50 in experiment [3] came out at 464 nM.

Values taken from patent publication US20240270758A1, “PYRIDINO-OR PYRIMIDO-CYCLIC COMPOUND, PREPARATION METHOD THEREFOR AND MEDICAL USE THEREOF” (Genfleet Therapeutics (Shanghai) Inc., priority 2021, published 2024).
